Results from patent US20180327367A1, “MACROCYCLIC BROAD SPECTRUM ANTIBIOTICS” (priority 2015, published 2018).
Values after ≈ are worked out from the molar mass of the structure shown. Read-outs that look alike come from different tables or passages of the source.

Legend:
Type in all cases: cell-based
[1] = system: Escherichia coli MC4100 harboring the IMP4213 (E. coli IMP); assay: microbe, parasite or virus in culture; settings: Escherichia coli, 22 h, read-out: MIC (μg/mL) E. coli IMP, E. coli MC4100 IMP4213, increased outer-membrane permeability; 35° C., 22 hours
Summary of the method: (§1)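 CLSI broth microdilution in cation-adjusted Mueller Hinton Broth with 0.002% Tween-80; inoculum final OD600 0.0005, 22 hours at 35° C. Ten 2-fold dilutions starting at 4 μg/mL (protocol 2) or 0.5 μg/mL (protocol 3).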

[2] = system: Methicillin Resistant Staphylococcus aureus strain USA 300, NRS384; assay: Minimum inhibitory concentration, broth micro-dilution (CLSI), S. aureus; settings: 35° C., 22 hours; for MIC: Staphylococcus aureus, MRSA / NRS 384 / USA300, 22 h
Summary of the method: as §1

[3] = system: Escherichia coli ATCC 25922; assay: Minimum inhibitory concentration, broth micro-dilution (CLSI), E. coli; settings: 35° C., 22 hours; for MIC: Escherichia coli, ATCC25922, 22 h
[4] = MRSA USA 300 NRS384, read-out: MIC (μg/mL) S. aureus
[5] = E. coli ATCC 25922, read-out: MIC (μg/mL) E. coli
[6] = read-out: MIC (μg/mL) S. aureus, MRSA USA 300 NRS384
[7] = read-out: MIC (μg/mL) E. coli, E. coli ATCC 25922

Row | SMILES | MIC [1] [µg/mL] | MIC [2, 4] [µg/mL] | MIC [3, 5] [µg/mL] | MIC [2, 6] [µg/mL] | MIC [3, 7] [µg/mL] | MIC (μg/mL) S. aureus ([2]; MRSA USA 300 NRS384) [µg/mL] | MIC (μg/mL) E. coli ([3]; E. coli ATCC 25922) [µg/mL]
1 | CCCCCCCCCCCCCC(=O)N[C@@H](CCN)C(=O)N(C)[C@@H]1C(=O)N[C@@H](C)C(=O)N[C@H](C(=O)NCC#N)Cc2ccc(OCC(=O)OC(C)(C)C)c(c2)-c2cc1ccc2OCCN [Compound 328] | 0.25 (≈ 0.272 µM) | 1 (≈ 1.09 µM) | 4 (≈ 4.35 µM) | – | – | – | –
2 | CCCCCCCCCC(=O)N[C@@H](CCC(N)=O)C(=O)N[C@@H](CCN)C(=O)N(C)[C@@H]1C(=O)N[C@@H](C)C(=O)N[C@H](C(=O)NCC#N)Cc2ccc(OCCN)c(c2)-c2cc1ccc2OCCN [Compound 385] | 0.5 (≈ 0.543 µM) | – | – | 0.25 (≈ 0.272 µM) | 32 (≈ 34.8 µM) | – | –
3 | Cc1cc(-c2ccc(CC(C)C)cc2)ncc1C(=O)N[C@@H](CCN)C(=O)N(C)[C@@H]1C(=O)N[C@@H](C)C(=O)N[C@H](C(=O)NCC#N)Cc2ccc(OCCN)c(c2)-c2cc1ccc2OCCN [Compound 167] | 0.0049 (≈ 0.00551 µM) | 0.023 (≈ 0.0259 µM) | 0.14 (≈ 0.157 µM) | – | – | – | –
4 | CCCc1ccc(-c2ncc(C(=O)N[C@@H](CCN)C(=O)N(C)[C@@H]3C(=O)N[C@@H](C)C(=O)N[C@H](C(=O)NCC#N)Cc4ccc(OCCN)c(c4)-c4cc3ccc4OCCN)c(C)n2)cc1 [Compound 161] | 0.003 (≈ 0.00342 µM) | 0.031 (≈ 0.0354 µM) | 0.13 (≈ 0.148 µM) | – | – | – | –
5 | CCCCCCc1ccc(C(=O)N[C@@H](Cc2ccncc2)C(=O)N(C)[C@@H]2C(=O)N[C@@H](C)C(=O)N[C@H](C(=O)NCC#N)Cc3ccc(OCCN)c(c3)-c3cc2ccc3OCCN)c(C)c1 [Compound 479] | 0.5 (≈ 0.563 µM) | 0.25 (≈ 0.282 µM) | 32 (≈ 36 µM) | – | – | – | –
6 | CCCCCCCCCC(=O)NCCC(=O)NCCC(=O)N[C@@H](CCN)C(=O)N(C)[C@@H]1C(=O)N[C@@H](C)C(=O)N[C@H](C(=O)NCC#N)Cc2ccc(OCCN)c(c2)-c2cc1ccc2OCCN [Compound 376] | 2.3 (≈ 2.46 µM) | 0.5 (≈ 0.535 µM) | > 64 | – | – | – | –
7 | CCCCCCCCCCN(CCC(=O)N[C@@H](CCCCNC(=O)OC(C)(C)C)C(=O)N(C)[C@@H]1C(=O)N[C@@H](C)C(=O)N[C@H](C(=O)O)Cc2ccc(OC(=O)OC(C)(C)C)c(c2)-c2cc1ccc2OC1O[C@H](CO)[C@@H](O)[C@H](O)[C@H]1NC(=O)OC(C)(C)C)C(=O)OC(C)(C)C (stereo partly drawn) [Compound 516] | > 4 | 2 (≈ 1.52 µM) | > 64 | – | – | – | –
8 | CCCCCCCc1ccc(C(=O)NC(CCNC)C(=O)N(C)[C@@H]2C(=O)N[C@@H](C)C(=O)N[C@H](C(=O)NCC#N)Cc3ccc(OCCN)c(c3)-c3cc2ccc3OCCN)c(C)c1 (single isomer, unassigned) [Compound 490-P1] | 0.068 (≈ 0.0783 µM) | – | – | – | – | 0.073 (≈ 0.0841 µM) | 0.75 (≈ 0.864 µM)
9 | C[C@@H]1NC(=O)[C@@H](N(C)C(=O)[C@H](CCN)NC(=O)c2ccc3ccccc3c2)c2ccc(OCCN)c(c2)-c2cc(ccc2OCCN)C[C@@H](C(=O)NCC#N)NC1=O [Compound 125] | 0.25 (≈ 0.316 µM) | 2 (≈ 2.53 µM) | 16 (≈ 20.2 µM) | – | – | – | –
10 | CCCCc1ccc(-c2ncc(C(=O)N[C@@H](CCN)C(=O)N(C)[C@@H]3C(=O)N[C@@H](C)C(=O)N[C@H](C(=O)NCC#N)Cc4ccc(OCCN)c(c4)-c4cc3ccc4OCCN)c(C)n2)cc1 [Compound 156] | 0.0044 (≈ 0.00494 µM) | 0.016 (≈ 0.018 µM) | 0.063 (≈ 0.0708 µM) | – | – | – | –
11 | CCCCCCCCCC(=O)N[C@@H](C)C(=O)NCCC(=O)N[C@@H](CCN)C(=O)N(C)[C@@H]1C(=O)N[C@@H](C)C(=O)N[C@H](C(=O)NCC#N)Cc2ccc(OCCN)c(c2)-c2cc1ccc2OCCN [Compound 364] | 0.75 (≈ 0.803 µM) | 0.38 (≈ 0.407 µM) | 48 (≈ 51.4 µM) | – | – | – | –
12 | Cc1cc(OCC2CCC(F)(F)CC2)ccc1C(=O)N[C@@H](CCN)C(=O)N(C)[C@@H]1C(=O)N[C@@H](C)C(=O)N[C@H](C(=O)NCC#N)Cc2ccc(OCCN)c(c2)-c2cc1ccc2OCCN [Compound 278] | 0.13 (≈ 0.144 µM) | 0.5 (≈ 0.553 µM) | 4 (≈ 4.42 µM) | – | – | – | –
13 | CCCCCCCCc1ccc2c(c1)CN([C@@H](CCN)C(=O)N(C)[C@@H]1C(=O)N[C@@H](C)C(=O)N[C@H](C(=O)NCC#N)Cc3ccc(OCCN)c(c3)-c3cc1ccc3OCCN)C2=O [Compound 488] | 0.13 (≈ 0.15 µM) | – | – | 0.094 (≈ 0.109 µM) | 4 (≈ 4.62 µM) | – | –
14 | CCCCCCCCCC(=O)NCCC(=O)NCC(=O)N[C@@H](CCN)C(=O)N(C)[C@@H]1C(=O)N[C@@H](C)C(=O)N[C@H](C(=O)NCC#N)Cc2ccc(OCCN)c(c2)-c2cc1ccc2OCCN [Compound 368] | 1 (≈ 1.09 µM) | – | – | 0.25 (≈ 0.272 µM) | 64 (≈ 69.6 µM) | – | –
15 | CCCCCCc1ccc(-c2ncc(C(=O)N[C@@H](CCN)C(=O)N(C)[C@@H]3C(=O)N[C@@H](C)C(=O)N[C@H](C(=O)NCC#N)Cc4ccc(OCCN)c(c4)-c4cc3ccc4OCCN)n2C)cc1 [Compound 507] | 0.016 (≈ 0.0177 µM) | 0.031 (≈ 0.0342 µM) | 0.75 (≈ 0.828 µM) | – | – | – | –
16 | Cc1cc(-c2ccc(CC(C)C)cc2)ccc1C(=O)N[C@@H](CCC(N)=O)C(=O)N(C)[C@@H]1C(=O)N[C@@H](C)C(=O)N[C@H](C(=O)NCC#N)Cc2ccc(OCCN)c(c2)-c2cc1ccc2OCCN [Compound 248] | 0.094 (≈ 0.103 µM) | 0.19 (≈ 0.207 µM) | 1 (≈ 1.09 µM) | – | – | – | –
